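Each compound was tested at five concentrations against cells in 96-well plates for 48 hours. At the GI50, growth is halved.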 Activity calls are given as the source filed them. No stated cut-off is given here; in the data, active = GI50 up to about 1.1 µM and inactive = higher. Numbered stars: 1 amine (or outer) side, 2 acyl side, 3 side chain; on linkers, the order of the positions; unused ones are H or OH. Bridge positions count the residues as written; N and C are the ends. Square brackets hold non-standard residues; d marks the D form. Peptide text beside a SMILES is read from it. X58 = COc1c(N[*:1])cccc1C(=O)O[C@H](C(=O)[C@H](C)C(=O)[*:2])C(C)C; X57 = CC(C)C[C@H](C(=O)[*:2])C(C)C(=O)C1CCCN1[*:1]; NMeY = CN[C@@H](Cc1ccc(O)cc1)C(=O)O; Lac = C[C@H](O)C(=O)O
Experiments:
Experiment in all cases: NCI tumour cell line growth inhibition, 48 h
M14 = test system: M14
HCT-116 = test system: HCT-116
SNB-19 = test system: SNB-19
MDA-MB-435 = test system: MDA-MB-435
HCC 2998 = test system: HCC 2998
RPMI-8226 = test system: RPMI-8226
SK-OV-3 = test system: SK-OV-3
RXF 393 = test system: RXF 393
KM12 = test system: KM12
HT-29 = test system: HT-29
SF-268 = test system: SF-268
SW-620 = test system: SW-620
OVCAR-5 = test system: OVCAR-5
SF-295 = test system: SF-295
IGROV-1 = test system: IGROV-1
NCI-H226 = test system: NCI-H226
CCRF-CEM = test system: CCRF-CEM
A498 = test system: A498
OVCAR-4 = test system: OVCAR-4

Measured: GI50

COc1cc([C@H]2CC(=O)C[C@H](c3cc(OC)c(OC)c(OC)c3)C23C(=O)c2ccccc2C3=O)cc(OC)c1OC
inactive: M14 > 100 µM | HCT-116 19.8 µM | SNB-19 > 100 µM | MDA-MB-435 > 100 µM | HCC 2998 > 100 µM | RPMI-8226 > 100 µM | SK-OV-3 37.3 µM | RXF 393 32.5 µM | KM12 > 100 µM | HT-29 > 100 µM | SF-268 > 100 µM | SW-620 > 100 µM | OVCAR-5 > 100 µM | SF-295 47.1 µM | IGROV-1 > 100 µM | NCI-H226 54.5 µM

O=C(CCCN1CCC2(CC1)CC(=O)N(N1CCOCC1)C2=O)c1ccccc1
inactive: M14 > 100 µM | HCT-116 > 100 µM | SNB-19 > 100 µM | MDA-MB-435 19.1 µM | HCC 2998 > 100 µM | CCRF-CEM > 100 µM | RPMI-8226 > 100 µM | SK-OV-3 > 100 µM | RXF 393 > 100 µM | KM12 > 100 µM | HT-29 > 100 µM | SF-268 > 100 µM | SW-620 > 100 µM | OVCAR-5 > 100 µM | SF-295 > 100 µM | IGROV-1 > 100 µM | NCI-H226 > 100 µM

CC(=O)OCC1OC(n2c(C)c(C)cc(C#N)c2=S)C(OC(C)=O)C(OC(C)=O)C1OC(C)=O (stereo not drawn)
inactive: M14 > 100 µM | HCT-116 > 100 µM | SNB-19 > 100 µM | A498 > 100 µM | OVCAR-4 > 100 µM | HCC 2998 > 100 µM | CCRF-CEM > 10 µM | RPMI-8226 > 100 µM | RXF 393 > 100 µM | KM12 > 100 µM | HT-29 > 100 µM | SF-268 60.5 µM | SW-620 > 100 µM | SF-295 > 100 µM | IGROV-1 > 100 µM | NCI-H226 > 100 µM

Cc1c2ncccc2c(C)c2c1[nH]c1ccccc12
inactive: M14 17.6 µM | HCT-116 5.27 µM | SNB-19 13.8 µM | A498 12.5 µM | OVCAR-4 18 µM | HCC 2998 12.3 µM | CCRF-CEM 10.2 µM | RPMI-8226 6.59 µM | SK-OV-3 17.4 µM | RXF 393 13 µM | KM12 10.3 µM | HT-29 11.3 µM | SF-268 13.8 µM | SW-620 6.79 µM | OVCAR-5 14.1 µM | SF-295 8.57 µM | IGROV-1 12.3 µM | NCI-H226 12.7 µM

COc1ccc(Nc2ccc3ccccc3c2-c2c(O)ccc3ccccc23)cc1
inactive: HCT-116 17.5 µM | SNB-19 17.3 µM | MDA-MB-435 3.99 µM | OVCAR-4 19 µM | HCC 2998 15.7 µM | CCRF-CEM 18.3 µM | RPMI-8226 9.68 µM | RXF 393 20.2 µM | KM12 16.1 µM | HT-29 16.1 µM | SF-268 17.8 µM | SW-620 13.9 µM | OVCAR-5 16.9 µM | SF-295 18.4 µM | IGROV-1 11 µM | NCI-H226 16.6 µM

Sc1nnc(-c2ccccc2)n1/N=C\c1ccc(-c2ccc(Cl)cc2)o1
inactive: M14 > 100 µM | HCT-116 > 100 µM | SNB-19 > 100 µM | OVCAR-4 > 100 µM | RPMI-8226 > 100 µM | SK-OV-3 > 100 µM | KM12 > 100 µM | HT-29 > 100 µM | SF-268 > 100 µM | SW-620 > 100 µM | OVCAR-5 > 100 µM | SF-295 > 100 µM | IGROV-1 > 100 µM | NCI-H226 > 100 µM

CN1C(c2ccccc2)CC(=O)C(N)C1c1ccccc1 (stereo not drawn)
inactive: M14 26.6 µM | HCT-116 18 µM | SNB-19 56.9 µM | A498 > 67.6 µM | OVCAR-4 49.4 µM | HCC 2998 20.8 µM | CCRF-CEM 25.2 µM | RPMI-8226 17.3 µM | SK-OV-3 > 58.6 µM | RXF 393 24.4 µM | KM12 23.9 µM | HT-29 23.9 µM | SF-268 38.2 µM | SW-620 19.9 µM | OVCAR-5 35.4 µM | SF-295 48.9 µM | IGROV-1 43.5 µM | NCI-H226 39.4 µM

N#Cc1ccccc1C#C/C=C\C#Cc1ccccn1
inactive: M14 15.5 µM | HCT-116 12 µM | SNB-19 25.9 µM | OVCAR-4 75.9 µM | HCC 2998 14.5 µM | CCRF-CEM 36.5 µM | SK-OV-3 25.1 µM | RXF 393 14.1 µM | HT-29 18 µM | SF-268 16.1 µM | SW-620 12.6 µM | OVCAR-5 28.6 µM | SF-295 20 µM | IGROV-1 17 µM

c1ccc(CSC(SCc2ccccc2)c2ccc3c(c2)OCO3)cc1
inactive: M14 > 10 µM | HCT-116 > 10 µM | SNB-19 > 10 µM | A498 > 10 µM | OVCAR-4 > 10 µM | HCC 2998 > 10 µM | CCRF-CEM > 10 µM | RPMI-8226 > 10 µM | SK-OV-3 6.44 µM | RXF 393 > 10 µM | KM12 > 10 µM | HT-29 > 10 µM | SF-268 > 10 µM | SW-620 > 10 µM | SF-295 > 10 µM | IGROV-1 > 10 µM | NCI-H226 > 10 µM

Clc1ccc(-c2nc3cc(Cl)ccc3[nH]2)cc1
inactive: M14 36.4 µM | HCT-116 22.9 µM | SNB-19 41.4 µM | MDA-MB-435 27.6 µM | OVCAR-4 58.1 µM | HCC 2998 29.8 µM | CCRF-CEM 54 µM | RPMI-8226 26.8 µM | SK-OV-3 39.3 µM | RXF 393 > 100 µM | KM12 24 µM | HT-29 33.6 µM | SF-268 45.5 µM | SW-620 42.6 µM | SF-295 28.2 µM | IGROV-1 43.4 µM | NCI-H226 50 µM

COc1ccc(C[C@H]2C(=O)O[C@H](C)[C@H](NC(=O)[C@@H](CC(C)C)C(C)C(=O)C3CCCN3C(=O)[C@H](C)O)C(=O)Nc3cccc(c3OC)C(=O)O[C@@H](C(C)C)C(=O)[C@H](C)C(=O)N[C@@H](CC(C)C)C(=O)N3CCC[C@H]3C(=O)N2C)cc1 (stereo partly drawn) (H-[Lac][X57]T[X58]LP[NMeY](Me); ester 3-C)
inactive: M14 11.4 µM | HCT-116 6.12 µM | SNB-19 11 µM | MDA-MB-435 4.93 µM | OVCAR-4 > 12.5 µM | HCC 2998 3.82 µM | RPMI-8226 6.53 µM | SK-OV-3 > 12.5 µM | RXF 393 > 12.5 µM | KM12 > 12.5 µM | HT-29 2.79 µM | SF-268 > 12.5 µM | SW-620 9.29 µM | OVCAR-5 > 12.5 µM | SF-295 > 12.5 µM | IGROV-1 > 12.5 µM | NCI-H226 7.26 µM

Cn1ccc2c(c1=O)C(=O)OC2(C)C [CERPEGIN]
inactive: M14 > 100 µM | HCT-116 > 100 µM | SNB-19 25.5 µM | A498 > 100 µM | OVCAR-4 > 100 µM | HCC 2998 > 100 µM | CCRF-CEM > 100 µM | RPMI-8226 > 100 µM | SK-OV-3 > 100 µM | RXF 393 > 100 µM | KM12 > 100 µM | HT-29 > 100 µM | SF-268 > 100 µM | SW-620 > 100 µM | OVCAR-5 > 100 µM | SF-295 > 100 µM | IGROV-1 > 100 µM | NCI-H226 > 100 µM
